Data on 1 molecule can be found in patent publication US8669264B2, “Rutaecarpine derivatives for activating CYP1A2 in a subject” (Linnet Biopharmaceuticals, Inc., priority 2011, dated 2014).

This data set relates to CYP1A2. As to the kind of experiment: MEROD assay in live Hepa1c1c7 cells (CYP1A2 induction). It counts as cell-based, mouse. The conditions noted are these: Hepa1c1c7 cells incubated with 10 μM compound. An excerpt: FIG. 1 illustrates how caffeine is primarily metabolized to paraxanthine via CYP1A2 enzyme in a human, according to some embodiments. The MEROD (methoxyresorufin-O-demethylase) assay measures the activity of the enzyme (CYP1A2) that converts methoxyresorufin (probe substrate) to resorufin (demethylation) in the presence of NADPH. The resulting resorufin concentration can be measured using a fluorescence reader by setting the excitation and emission wavelengths at 544 and 590 nm, respectively.
For MEROD assay in live cells, Hepa1c1c7 cells were cultured in either 6-well or 24-well-plates. For the 24-well plate experiment, after confluent cells were incubated for approximately 20 hours with either resorufin, nitro-resorufin, chloro-resorufin, 3-MC or DMSO (in triplicates), culture media was removed and 180 μL fresh culture media containing […] methoxyresorufin was added per well. After 1 hour incubation at 37° C., 100 μL aliquot was taken from each well and the formation of resorufin was measured by fluorescence. […] After 5 hours incubation at 37° C., 100 μL aliquot was taken from each well, centrifuged at 12,000 g at RT for ˜5 min and the supernatants were placed into wells of a 96-well fluorescence plate and the formation of resorufin was measured by fluorescence.

On to `O=c1c2ccc(Cl)cc2nc2n1CCc1c-2[nH]c2ccccc12` [chloro-rutaecarpine], for which the “formation of resorufin from live cells (MEROD)” value was “no marked difference”.
